# Entries after “also recorded” stand apart in the source; their conditions may differ.
# Legend:
# MDA-MB-435S.luc cells = experiment: Cell toxicity (MTT) screening in MDA-MB-435S.luc breast cancer cells; format: cell-based, human; settings: relative to Phor21-βCG-ala (IC50 2.31 μM)
# Excerpt: The human breast cancer cell line MDA-MB-435S.luc, which over expresses chorionic gonadotrophin (CG) and luteinizing hormone-releasing hormone (LHRH) receptors, was used to screen at passage numbers 248-252. The MDA-MB-435S.luc cell line was constructed from the MDA-MB-435S cell line obtained from the American Type Cell Culture Collection by stable transfection with the plasmid PRC/CMV-luc containing the Photinus pyralis luciferase gene and an […] by lipofection. The stably transfected cell line was selected using G418 and the clones with the highest expression for the luciferase gene were tested for their LH and LHRH receptor expression.
# MDA-MB435S.luc cells were grown in Leibovitz's L 15 medium, 10% fetal bovine serum, 0.01 mg/ml bovine insulin, 100 IU/ml penicillin, 100 microg/ml streptomycin. The cells were cultured in tight closed flasks. The incubations were conducted using 96 well plates at 10,000 cells per well. Cells were typically seeded into 96 well plates and media was replaced after 48 hours of incubation. Each assay was conducted at increasing concentrations of 0, 0.001, 0.01, 0.05, 0.1, 0.5, 1, 2, 5, 10 and 100 micromolar doses of lytic peptide-binding domain conjugate. […]
# Data were processed and analyzed using Graph Pad Prizm 4™ software (Graph Pad Prizm, Inc). Statistical analysis for significance was determined by a two-tailed Student's T-test. […]
# OVCAR-3 = experiment: IC50 in OVCAR-3 ovarian cancer cell line; format: cell-based, human
# Description: MDA-MB435S.luc cells were grown in Leibovitz's L 15 medium, 10% fetal bovine serum, 0.01 mg/ml bovine insulin, 100 IU/ml penicillin, 100 microg/ml streptomycin. The cells were cultured in tight closed flasks. The incubations were conducted using 96 well plates at 10,000 cells per well. Cells were typically seeded into 96 well plates and media was replaced after 48 hours of incubation. Each assay was conducted at increasing concentrations of 0, 0.001, 0.01, 0.05, 0.1, 0.5, 1, 2, 5, 10 and 100 micromolar doses of lytic peptide-binding domain conjugate. Each lytic peptide-binding domain conjugate provided in lyophilized form and was freshly dissolved in saline and added to cells. The duration of incubation was typically 24 h, and cell viability assays were conducted using formazan conversion assays (MTT assay). Controls contained saline or 0.1% triton as reference for 0 and 100% cell death, respectively.
# To ascertain the IC50 of various fusion constructs on different human cancer cell lines compared to cisplatinum, IC50 of fusion constructs were evaluated as in Table 3.
# [1] = tested on: MDA-MB-435S.luc xenograft; experiment: MDA-MB-435S.luc xenograft, LHRH fusion constructs; format: in vivo, Nu/Nu mice
# Description: For LHRH fusion constructs, the mouse xenograft model for breast cancer was used. In brief, Nu/Nu female mice, outbred strain, age 5 weeks (Charles River) were injected subcutaneously with a MDA-MB-435S.luc/Matrigel suspension (1×10^6 cells). Treatment was started on day 21 after tumor cell injection and continued on day 26 and 29. The doses for weekly fusion construct injections were 2, 0.2 and 0.02 mg/kg body weight, given as a bolus single injection. All mice were necropsied 34 days after tumor cell injection-baseline values for tumor weights were obtained by sacrificing 8 mice at treatment start. […] Tumor weights were recorded at necropsy, part of the tumors were frozen at −80° C. for luciferase assay determination.
# Characteristics of tumors at necropsy are summarized in FIG. 10: (A) tumor weight, (B) changes of tumor weights compared to baseline, (C) total number of live tumor cells, (D) changes of total live tumor cells compared to baseline, and (E) body weights at baseline and necropsy. Viability of tumor cells was determined at the end of the study when tumors were measured for luciferase activity. Treatment efficacy was calculated as difference between measurements at the beginning of treatment compared to the measurement at the end of study (FIGS. 10B and 10D).
# OVCAR-3 cells = format: cell-based, human; settings: OVCAR-3 p47, series with increasing incubation time (times not given per value)
# Excerpt: Membranes of non-cancerous cell lines are neutral and are resistant to cytolytic peptides, in contrast to cancer cell lines, which have a high phosphatidic acid content in their outer membrane.
# (§1) The breast cancer cell lines studied were MDA-MB435S (estrogen receptor alpha negative), MCF-7 and T47D (estrogen receptor alpha positive), ovarian cancer cell lines (OVCAR-3 and SKOV-3), prostate cancer (LNCaP), the non-malignant breast epithelial cell line MCF-10A and the mouse fibroblast cell line NIH:3T3.
# Cells were seeded into 96 well plates at a density of 10,000 cells/well. […] Controls contained USP saline or 0.1% TritonX-100™ as reference for 0 and 100% cell death, respectively. […] Cell viability was assessed through formazan conversion assay (MTT assay, (CellTiter 96 Aqueous One, Promega # G3582). Formazan conversion was determined using a BioRad Benchmark Plus microplate spectrophotometer dual wavelengths at 490/630 nm at room temperature).
# (§2) Data were calculated as fraction of absorption in TritonX-100™ containing wells representing 100% cell death versus 0% cell death in saline containing wells. Cytotoxicity was determined as IC50 using GraphPad Prism version 5.01 for Windows, GraphPad Software, San Diego Calif. […] 4 wells of each individual set of two 96 well plates were compared and analyzed. Statistical analysis for significance was determined by a two-tailed Student's T-test.
# NIH:3T3 = format: cell-based, mouse; settings: non cancerous cell line 3T3
# Description: as §1
# Cells were seeded into 96 well plates at a density of 10,000 cells/well. […] Controls contained USP saline or 0.1% TritonX-100™ as reference for 0 and 100% cell death, respectively. Incubations were terminated by removing the culture media after 2 minutes, 5 minutes, 15 minutes, 30 minutes, 1 hour, 2 hours, 6 hours, 24 and 48 hours. Cell viability was assessed through formazan conversion assay (MTT assay, (CellTiter 96 Aqueous One, Promega # G3582). Formazan conversion was determined using a BioRad Benchmark Plus microplate spectrophotometer dual wavelengths at 490/630 nm at room temperature).
# as §2
# MDA-MB-435 cells = experiment: Fluorescence microscopy, MDA-MB-435 breast cancer cells; format: cell-based, human; settings: 10 μM, 5 minutes exposure
# Description: In brief, human breast cancer cells (MDA-MB435, passage #252) were seeded onto culture dishes. The following markers were introduced prior to adding EP100: DRAQ5™ (Alexis Corporation)—blue—was used for staining of the nucleus and MitoTracker® Red CMXRos (M7512) (Molecular Probes, Inc. OR) were applied for visualizing intact mitochondria. Cell membranes were stained with wheat germ alexa fluor green conjugates (Molecular Probes, Inc. OR).
# Cells were loaded first with Mitotracker dye, according to the manufacturers recommendation. […] Culture dishes with saline only served as controls. The supernatant was removed and the remaining cells prepared for fluorescence microscopy imaging.
# MDA-MB-435S xenograft [2] = experiment: MDA-MB-435S xenograft, once weekly for 3 weeks (minimal effective dose); format: in vivo, Nu/Nu mice; settings: H&E
# Description: (§3) In vivo efficacy studies were conducted as monotherapy, or a combination therapy with standard of care treatments in nude mice bearing human breast cancer xenografts: MDA-MB435S.luc (s.c.), MCF-7 (estrogen receptor alpha positive), human ovarian cancer xenografts: OVCAR-3, (s.c.), human prostate cancer xenografts: PC-3 (androgen receptor negative).
# (§4) Mice were sacrificed one week after the last injection and blood collected for chemistry panel, tumor weights and body weights were recorded. Part of the tumors were fixed in PBS buffered 10% formalin for histological evaluation.
# To determine the minimal effective dose necessary to reduce MDA-MB-435S xenograft weights in a single dose regimen, Nu/Nu female mice, outbred strain, age 5 weeks (Charles River), were injected (s.c.) into the interscapular region with a MDA-MB435S (passage #249)/Matrigel suspension (2.4×10^6 cells/mouse) [Leuschner 2006].
# Each group consisted of 16 mice, which were injected once a week for 3 weeks. […] During the entire study tumor volumes were recorded twice weekly. […]
# Treatment response was determined by tumor weights and tumor weight change at necropsy compared to saline controls and untargeted CLIP71 treatment. […] Statistical evaluation of data sets were conducted in GraphPad Prizm 4 and significance calculated by Wilcoxon signed-rank test.
# MDA-MB435S xenograft = experiment: MDA-MB435S xenograft, multiple dose regimen; format: in vivo, Nu/Nu mice; settings: 0.002 and 0.2 mg/kg, multiple i.v. injections
# Description: In order to determine the minimal effective dose necessary to reduce MDA-MB435S xenograft weights in a multiple dose regimen, Nu/Nu female mice, outbred strain, age 8 weeks (Charles River), were injected (s.c.) into the interscapular region with a MDA-MB435S (passage #253)/Matrigel suspension (2×10^6 cells/mouse) as previously described above. […] The doses were given as a single bolus intravenous injection via lateral tail vein on days 15, 16, 17, 20, 21, 22, 23, 27, 28, 29, 30, 33, 34, 35, 36, 37, 38, 40, 41, 42 after tumor cell inoculation. Saline injections served as control groups.
# Each treatment group consisted of 16 mice. During the entire study tumor volumes were recorded twice weekly. Final necropsy was conducted on day 45 after tumor cell injection. […] due to occlusion of the tail vein in most mice. At study endpoint body weight, tumor weights were determined and fixed in phosphate buffered 10% formalin.
# MDA-MB-435S xenograft [3] = experiment: MDA-MB-435S xenograft, kinetics after a single injection; format: in vivo, Nu/Nu mice; settings: single i.v. injection 0.2 and 2 mg/kg
# Description: In brief, Nu/Nu female mice, outbred strain, age 5 weeks (Charles River), were injected (s.c.) into the interscapular region with a MDA-MB-435 S (passage #249)/Matrigel suspension (2.4×10^6 cells/mouse) as described in Example 10. […] The doses were given as a single bolus intravenous injection via lateral tail vein.
# Mice were sacrificed 1, 2 and 16 hours after treatment with Phor 18-LHRH (338613) or saline. At study endpoint body weight, tumor weights were determined and tumors were fixed in phosphate buffered 10% formalin.
# NIH:OVCAR-3 xenograft = experiment: OVCAR-3 ovarian cancer xenograft; format: in vivo
# Description: The xenograft model of the OVCAR-3 human ovarian cancer cell line that present functional LHRH receptors was used in this study. OVCAR-3 represents a slow growing xenograft model and secretes the tumor marker (cancer antigen 125, or […]). It's secretion can be used as treatment response and is a measure of drug activity.
# In brief, Nu/Nu female mice, inbred strain, age 5 weeks (Harlan-Sprague Dawley) were injected subcutaneously with a NIH:OVCAR-3 cells/Matrigel suspension (4.6×10^6 cells/mouse). Treatment was started on day 33 after tumor cell injection when the tumors were established and continued on days 41 and 47. The doses for the 3 weekly injections were 0.02, 0.2 and 2 mg/kg body weight, given as a single bolus intravenous injection via lateral tail vein administered once a week for three weeks on days 33, 41 and 47. Necropsies were conducted on day 52. Data are presented as mean SEM. Arrows show dosing.
# A group of 9 tumor bearing mice was sacrificed on day 33 and served as baseline group. All mice were necropsied 51-52 days after tumor cell injection. Tumor volumes and bodyweights were recorded twice weekly during the study, as well as overall veterinarian examination of mice was conducted.
# (§5) Primary tumors, liver, kidney, pancreas, heart, lung, and spleen were collected, fixed in formalin and prepared for histological evaluation. Tumor weights were measured at necropsy, part of the tumors were frozen at −80° C. for LH/CG and LHRH receptor assay determination.
# As a biomarker for drug activity, CA125 was determined in serum, collected from each individual mouse at necropsy using a Enzyme Linked Immunoassay for quantitative determination of ovarian cancer antigen CA125 (Assay kit Genway, Biotech, Inc. San Diego, Calif., Catalog #40-052-115009, # BC-1013 according to the manufacturer).
# LHRH receptor levels were assessed from formalin fixed tumors. Quantitative immunoperoxidase image analysis was conducted with the Ventana Image Analysis System (VIAS) adjunctive computer assisted image analysis system functionally connected to an interactive microscope (Axio Imager). The quantitative analysis was conducted with the program for quantification of Her2/neu receptor that included morphometric and colorimetric analysis. Receptor status results were reported as percentage of cells showing positive staining of the LHRH receptors under the following criteria: 0 non-immunoreactive, 1+: 1-25% positive, 2+: 26-50% positive, 3+: 51-75% positive cells.
# PC-3 xenograft = experiment: PC-3 prostate cancer xenograft; format: in vivo, Nu/Nu mice
# Description: PC-3 xenografts untreated cause significant weight loss in mice.
# In brief, Nu/Nu male mice, outbred strain, age 6 weeks (Charles River) were injected subcutaneously with a PC-3 cells/Matrigel suspension (1×10^6 cells/mouse). Treatment was started on day 15 after tumor cell injection when the tumors were established and continued on days 22 and 29. […]
# A group of 12 tumor bearing mice was sacrificed on day 15 and served as baseline group. All mice were necropsied 35 and 36 days after tumor cell injection. Tumor volumes and bodyweights were recorded twice weekly during the study, as well as overall veterinarian examination of mice was conducted.
# as §5
# MCF-7 xenograft = experiment: MCF-7 breast cancer xenograft; format: in vivo, nude mice; settings: 2 × 3 wk, 19 d, growth delay
# Description: as §3
# PHOR 18-LHRH (338613) Combination therapies were conducted in a MCF-7 breast cancer xenograft models.
# as §4
sequence,measurement,setting,value
KFAKFAKKFAKFAKKFAKQHWSYGLRPG [Phor18-LHRH],Increased in vitro activity fold (IC50 of 33/IC50 peptide),MDA-MB-435S.luc cells,2.65 fold
same,IC50,OVCAR-3,3000 ± 500 nM
same,tumor volume during treatment / 30 days,"[1]; 0.02, 0.2, 2 mg/kg weekly",smallest tumor volumes
same,overall efficacy in reducing tumor weight and live tumor cells (vs other constructs / reference Phor21-βCG-ala),"[1]; mouse, in vivo",Equally effective
same,IC50,OVCAR-3 cells,500 nM
same,IC50,NIH:3T3,> 10000 nM
same,effect on plasma membrane (fluorescence microscopy),MDA-MB-435 cells,disintegration of the plasma membrane
same,dose with significant necrosis in tumors (histology),MDA-MB-435S xenograft [2],0.0002 mg/kg
same,tumor response,MDA-MB435S xenograft,tumor regression at both dose levels; also recorded: eradication of tumor cells
same,time after injection to destruction of tumors (histology),MDA-MB-435S xenograft [3],1 hour
same,dose with significant necrosis in tumor sections,NIH:OVCAR-3 xenograft; H&E,0.02 mg/kg
same,Median Tumor Weight vs Baseline p < 0.05 (dose),"NIH:OVCAR-3 xenograft; OVCAR-3 xenograft, 1 × 3 wk, 20 d",0.2 mg/kg
same,tumor volume during treatment,"NIH:OVCAR-3 xenograft; Phor18-LHRH 0.02-2 mg/kg, CLIP71 2 mg/kg, cisplatinum 10 mg/kg",Tumor volumes decreased during treatment
same,serum CA125,NIH:OVCAR-3 xenograft; greatest at 0.2 and 2 mg/kg (p<0.0002 vs saline),CA125 secretion was reduced
same,tumor weights at necropsy,"NIH:OVCAR-3 xenograft; mouse, in vivo",Tumor free mice were found
same,Median Tumor Weight vs Baseline p < 0.05 (dose),"PC-3 xenograft; PC-3 xenograft, 1 × 3 wk, 21 d",0.2 mg/kg
same,tumor volume during treatment,"PC-3 xenograft; Phor18-LHRH 0.002-2 mg/kg, CLIP71 5 mg/kg",Tumor volumes decreased during treatment
same,Median Tumor Weight vs Saline P < 0.05 (dose),MCF-7 xenograft,0.02 mg/kg growth

# From patent US8318899B2, “Lytic domain fusion constructs and methods of making and using same” (Board of Supervisors of Louisiana State University and …, priority 2008, dated 2012)
